Measurements from patent US8362031B2, “Lonidamine analogues and treatment of polycystic kidney disease” (University of Kansas, priority 2004, dated 2013).
“Also recorded” adds a separate entry of the source.

How the values were obtained:
S. typhimurium TA100 = assay: Colormetric Ames Test Procedure; format: cell-based; settings: at the concentration given per compound (1.39-360.1 μM), 5 days at 37° C.
Procedure: The following procedures were performed aseptically. First, the day before the assay, as late as possible in the day, the vial labeled “G” Nutrient Broth was dispensed into the vial labeled S. typhimurium TA100 (lyophilized). The mixture was incubated over night at 37° C. for about 16-18 hours.
In appropriate vial, about 50 mg of the test compound was weighed out. About 1 mL of DMSO was added, and the mixture was filter sterilized with 25 mm syringe filter into a sterile tube. The concentration of DMSO was noted.
In a sterile 50 mL tube, about 15 mL of sterile Davis Mingioli Salt (see Davis & Mingioli, Aromatic biosynthesis, VII. Accumulation of two derivatives of shikimic acid by bacterial mutants, J. Bacteriol. 1953. August; 66(2): 129-36) was pipetted. This salt solution (Muta Component “A”) was comprised of (1) Milli-Q, 600 mL; (2) dipotassium phosphate, anhyd., 38.5 g; (3) monopotassium phosphate, anhyd. 11.0 g; (4) ammonium sulfate, 5.5 g; (5) trisodium citrate, 1.375 g; and (6) magnesium sulfate, 0.55 g. Appropriate volume of Milli-Q water was added to bring total volume to 1 L. Each component was dissolved one at a time in the above order. The solution was filtered through a 0.22 μm filter to remove sediment at a pH of about 7.3.
To the salt solution, small amounts of DMSO diluted compound was added, not to exceed 500 μl of DMSO. For example, about 100 μl aliquots of the DMSO diluted compound was added until the highest concentration is reached with compound still in solution. […] When the highest concentration of compound was determined, an appropriate volume of sterile Davis Mingioli salts was added to bring the total volume of solution to 17.5 mL. The concentration of compound and DMSO in the test solution was then noted.
The components were then mixed in a 50 mL sterile tube labeled Reaction Mixture as follows: 21.62 mL of A+4.75 ml of B (D-glucose, 40% w/v)+2.38 mL of C (bromocresol purple, 5 mg/ml)+1.19 ml of D (D-biotin, 0.1 mg/ml)+0.060 ml (60 μl) of E (L-histidine, 0.1 mg/ml). The vial was vortexed and then set aside.
The S9 Mixture was prepared by reconstituting the S9 enzymes with 2.1 mL of sterile water. This was labeled “S9F.” In a 50 mL tube labeled S9 Mixture, the following were mixed together (all available from EBIP): 0.4 mL of S9A (MgCl2, 0.4 M and KCl, 1.65 M)+0.09 mL of S9B (glucose-6-phosphate, 1.0 M)+0.81 mL of S9C (nicotine amide di-nucleotide phosphate, 0.1 M)+9.98 mL of S9D (phosphate buffer, pH 7.4)+6.72 mL of S9E (sterile distilled water)+2 mL of S9F (Rate liver extract). The vial was vortexed and then set aside.
Sterile tubes were labeled as follows: Blank, Background I, Background II, Standard Mutagen, Compound 1 (−), Compound 1 (S9+), Compound 2 (−), Compound 2 (S9+), Compound 3 (−), Compound 3 (S9+). Next, about 2.5 mL of the reaction mix was added to each tube. Then, about 2 mL of the S9 mix was added to the Background II and the S9+ compounds. Next, to each of the compound vials, about 8 mL of the prepared compounds was added. The concentration of the compound in the final solution was noted. Then, about 100 μl of the standard mutagen was added to the Standard mutagen vial. (NaN3 for non S9 activation and 2-aminoanthracene with S9 activation). The appropriate volume of sterile water was next added for a final volume of 17.5 mL. Then, about 5 μl of bacteria was added to each tube except the Blank. Each vial was vortexed and poured into a sterile multi-channel pipette boat, and pipette 200 μl per well into the 96 well plate with a multi channel pipetter. The plates were labeled, covered, placed in zip lock bag, and then incubated for 5 days at 37° C.
On day five of the incubation, the plates were removed from the incubator and placed in a laminar flow hood. The Blank was analyzed first. If there were any wells that were yellow, the test was considered contaminated and the results invalid. […]

rats = assay: Toxicology: organs sectioned and examined after dosing; format: in vivo; settings: two animals examined, findings per animal
Procedure: In at least two of the animals in each group, the pancreas, right kidney and part of the liver, heart, spleen, and lung were removed and evaluated for toxic effects.
The toxicology of animals receiving some of the compounds of the present invention IP and/or oral was examined. At the time of sacrifice samples of liver, pancreas, heart, lung, spleen and kidney were removed, visually inspected, and immersion fixed in Bouin's solution for a minimum of 48 hours. All organs were then sectioned and examined for evidence of necrosis, inflammation, hemorrhage, and possible tumors. The major veins in each tissue were also examined for distention, especially in the liver and pancreas, and any other abnormalities are compared to known histopathological states. In addition to the above, the heart was examined for evidence of fibrosis in the muscular walls, and to compare the thickness of the ventricular walls. The pancreas was examined mainly for calcium deposits, while the lung was checked for signs of any exudates or hemorrhage, especially in the alveolar spaces. Finally, the kidney was examined mainly for microscopic hemorrhages, tubular necrosis or alterations in the glomeruli in the cortex.
In this example, the effects of RC-MC-30 were compared with those of lonidamine in sexually mature rats. As discussed above, each of the rats (8 total) received a single injection and were sacrificed five days after injection and examined.

Male Long Evans rats = assay: In vivo antispermatogenic testing in Long Evans rats; settings: for Mortality (25 mg/kg) / Response 25 mg/kg: 25 mg/kg single i.p. injection; for Response 25 mg/kg / Response 200 mg/kg: animals responding out of animals surviving, five days following injection; for Mortality (200 mg/kg) / Response 200 mg/kg: 200 mg/kg single i.p. injection
[1] = test system: Salmonella Typhimurium TA 100; assay: Ames test for mutagenicity (plate assay, colony count); settings: 48 hours at 37° C.; for Ames test (+)S9 0.1 mg/pl. / Ames test (+)S9 1 mg/pl. / Ames test (+)S9 10 mg/pl.: (+)S9 mix; for Ames test (−)S9 0.1 mg/pl. / Ames test (−)S9 1 mg/pl. / Ames test (−)S9 10 mg/pl.: (−)S9 mix

COc1ccc2c(C(=O)O)nn(Cc3ccc(Cl)cc3Cl)c2c1 [JWS-2-122, 1-(2,4-dichlorobenzyl)-6-methoxy-1H-indazole-3-carboxylic acid]
Colormetric Ames test, with S9 (S. typhimurium TA100): Pass* | Colormetric Ames test, without S9 (S. typhimurium TA100): Pass*

COC(=O)c1nn(Cc2ccc(Cl)cc2Cl)c2cc(OC)ccc12 [JWS-2-120, 1-(2,4-dichlorobenzyl)-6-methoxy-1H-indazole-3-carboxylic acid methyl ester]
Colormetric Ames test, with S9 (S. typhimurium TA100): Pass* | Colormetric Ames test, without S9 (S. typhimurium TA100): Pass*

COC(=O)c1nn(Cc2ccc(Cl)cc2Cl)c2cccc(C)c12 [JWS-2-92, 1-(2,4-dichlorobenzyl)-4-methyl-1H-indazole-3-carboxylic acid methyl ester]
Colormetric Ames test, with S9 (S. typhimurium TA100): Pass* | Colormetric Ames test, without S9 (S. typhimurium TA100): Pass*

O=C(O)/C=C/c1nn(Cc2ccc(Cl)cc2Cl)c2cc(OC(F)(F)F)ccc12 [JWS-2-112, 3-[1-(2,4-dichlorobenzyl)-6-trifluoromethoxy-1H-indazol-3-yl]acrylic acid]
Colormetric Ames test, with S9 (S. typhimurium TA100): Pass* | Colormetric Ames test, without S9 (S. typhimurium TA100): Pass*

COc1ccc2c(/C=C/C(=O)O)nn(Cc3ccc(Cl)cc3Cl)c2c1 [JWS-2-132, 3-[1-(2,4-dichlorobenzyl)-6-methoxy-1H-indazol-3-yl]acrylic acid]
Colormetric Ames test, with S9 (S. typhimurium TA100): Pass* | Colormetric Ames test, without S9 (S. typhimurium TA100): Pass*

NNC(=O)c1nn(Cc2ccc(Cl)cc2Cl)c2cc(F)ccc12 [JWS-1-160, 1-(2,4-dichlorobenzyl)-6-fluoro-1H-indazole-3-carboxylic acid hydrazide]
Toxicology: liver, lung, pancreas, spleen, heart and kidney (histology) (rats; 25 mg/kg, listed as JSW-1-160): The kidney does have scattered, small patches of tubular necrosis in the inner cortex; also recorded: The liver had several distended veins, but no other abnormalities were noted; also recorded: liver, lung, pancreas, spleen, heart and kidney all appeared within normal limits | Toxicology: liver, lung, pancreas, spleen, heart and kidney (histology) (rats; 200 mg/kg, listed as JSW-1-160): The kidney did have scattered, small patches of tubular necrosis in the inner cortex; also recorded: liver, lung, pancreas, spleen, heart and kidney all appeared within normal limits | Mortality (25 mg/kg) (Male Long Evans rats): 0/5 | Response 25 mg/kg (Male Long Evans rats): 3/5 | Mortality (200 mg/kg) (Male Long Evans rats): 2/5 | Response 200 mg/kg (Male Long Evans rats): 3/3 | Ames test (+)S9 0.1 mg/pl. [1]: Pass | Ames test (+)S9 1 mg/pl. [1]: Pass | Ames test (+)S9 10 mg/pl. [1]: Pass | Ames test (−)S9 0.1 mg/pl. [1]: Pass | Ames test (−)S9 1 mg/pl. [1]: Pass | Ames test (−)S9 10 mg/pl. [1]: Pass

O=C(O)c1nn(Cc2ccc(Cl)cc2Cl)c2cc(OC(F)(F)F)ccc12 [JWS-2-102, 1-(2,4-dichlorobenzyl)-6-trifluoromethoxy-1H-indazole-3-carboxylic acid]
Colormetric Ames test, with S9 (S. typhimurium TA100): Pass* | Colormetric Ames test, without S9 (S. typhimurium TA100): Pass*

COC(=O)c1nn(Cc2ccc(Cl)cc2Cl)c2cc(OC(F)(F)F)ccc12 [JWS-2-100, 1-(2,4-dichlorobenzyl)-6-trifluoromethoxy-1H-indazole-3-carboxylic acid methyl ester]
Colormetric Ames test, with S9 (S. typhimurium TA100): Pass* | Colormetric Ames test, without S9 (S. typhimurium TA100): Pass*

NNC(=O)c1nn(Cc2ccc(Cl)cc2Cl)c2cc(OC(F)(F)F)ccc12 [JWS-2-104, 1-(2,4-dichlorobenzyl)-6-trifluoromethoxy-1H-indazole-3-carboxylic acid hydrazide]
Colormetric Ames test, with S9 (S. typhimurium TA100): Pass* | Colormetric Ames test, without S9 (S. typhimurium TA100): Pass*

COC(=O)/C=C/c1nn(Cc2ccc(Cl)cc2Cl)c2cc(OC(F)(F)F)ccc12 [JWS-2-110, 3-[1-(2,4-dichlorobenzyl)-6-trifluoromethoxy-1H-indazol-3-yl]acrylic acid methyl ester]
Colormetric Ames test, with S9 (S. typhimurium TA100): Pass* | Colormetric Ames test, without S9 (S. typhimurium TA100): Pass*

COC(=O)c1nn(Cc2ccc(Cl)cc2Cl)c2cnccc12 [JWS-1-130, 1-(2,4-dichlorobenzyl)-1H-pyrazolo[3,4-c]pyridine-3-carboxylic acid methyl ester]
Toxicology: liver, lung, pancreas, spleen, heart and kidney (histology) (rats; 25 mg/kg): The liver appeared to have distended veins throughout, but no other abnormalities were noted; also recorded: The liver did have distended veins throughout, with small scattered patches of necrosis, usually located around the periportal areas | Toxicology: liver, lung, pancreas, spleen, heart and kidney (histology) (rats; 200 mg/kg): liver, lung, pancreas, spleen, heart and kidney all appeared within normal limits; also recorded: The liver did have distended veins throughout, with small scattered patches of necrosis, usually located around the periportal areas | Mortality (25 mg/kg) (Male Long Evans rats): 0/5 | Response 25 mg/kg (Male Long Evans rats): 0/5 | Mortality (200 mg/kg) (Male Long Evans rats): 0/5 | Response 200 mg/kg (Male Long Evans rats): 0/5 | Ames test (+)S9 0.1 mg/pl. [1]: Pass | Ames test (+)S9 1 mg/pl. [1]: Pass | Ames test (+)S9 10 mg/pl. [1]: Pass | Ames test (−)S9 0.1 mg/pl. [1]: Pass | Ames test (−)S9 1 mg/pl. [1]: Pass | Ames test (−)S9 10 mg/pl. [1]: Pass
